Where two headings read alike, the source gives them in different places.
Tests used:
[1] = system: consortium of 6 Lactobacilli spp cultures; experiment: Corn mash fermentation without yeast, inoculated with Lactobacillus consortium, well-mixed or poorly-mixed fermentors; type: cell-based, Lactobacillus sp
Source text: The purpose of this experiment is to determine the efficacy of virginiamycin in three forms (DMSO-solubilized virginiamycin, Belgium powdered virginiamycin, and Brazilian powdered virginiamycin) in real corn mash fermentations against a consortium of Lactobacillus sp bacteria. No yeasts will be added. The efficacy of these forms of virginiamycin will be further tested in fermentors that will be properly (continuously) mixed and in fermentors that have improper mixing—simulating more closely the fermentor mixing conditions seen in field ethanol plants.
The first step in testing was the preparation of corn mash (i.e., Gelatinization, Liquefaction, and Saccharification). […]
The mash temperature was then decreased to 60° C. at which point 2 L water and 200 ml G-Zyme™ 480 Ethanol glucoamylase (available from Genencor, Rochester, N.Y.) were added. […] No bacterial contamination was detected in any test incubated mashes.
For each 7.6 L sterile container of mash, a 60 g aliquot was removed and divided into two 30 g sub-samples within 50 ml centrifuge tubes. […] The specific gravity of each subsample was then determined using a digital density meter (DMA-45; Anton Paar KG, Graz, Austria) which was temperature regulated to 4° C. If the readings on the density meter were off-scale, then a precise dilution of the subsamples were done and then re-read in the density meter. […]

[2] = cited from earlier work
[3] = Solubility of virginiamycin in several solvents (applicant's determination); type: physicochemical
Procedure: The solubility of virginiamycin in several solvents were determined. Each of these solvents can be useful in solubilized organic liquid comprising antimicrobial material, an emulsion of the same in water, or in both. […] Such a solution is stable, pumpable, and useful not only for treatments of ethanol-producing facilities but for a number of other uses where virginiamycin is used.

[4] = Rate of dissolution of powdered virginiamycin in stirred water; type: physicochemical; settings: 0.1 gram of 5.2 to 10 micron average particle size powder in 4 liters of water, continuously stirred
Source text: The solubility of monensin, virginiamycin, and similar pristinamycin-type antimicrobial agents and polyether ionophore-type antimicrobial agents in water is very low. Much more important, however, is the rate of dissolution of small granular pristinamycin-type antimicrobial agents and polyether ionophore-type antimicrobial agents in water. A 0.1 gram sample of a 5.2 to 10 micron average particle size virginiamycin was placed in a beaker with 4 liters of water, and the composition was continuously stirred. The presence of undissolved crystals was very evident.

[5] = solvent: 50% NMP/50% Ethyl lactate

In the case of virginiamycin, the Lactobacilli killed ([1]; pre-solubilized agent, within 6 hours) is listed as “at least 90%”, the Lactobacillus count ([1]; well mixed fermentors (150 RPM), 1 ppm virginiamycin, inoculum 5E5 CFU/ml, up to 48 h) is listed as ≤ 1 E6 CFU/ml and the “Solubility (literature data, "virginiamycin-type" compounds)” value ([2]; solvent: 1% ethanol in water) is listed as 0.002 g/L. The “Solubility (literature data, "virginiamycin-type" compounds)” value ([2]; solvent: DMSO) was over 100 g/L, the “Solubility (literature data, "virginiamycin-type" compounds)” value ([2]; solvent: acetone, disproportionate solubilities for Type A and Type B) was about 190 g/L and the “Solubility (literature data, "virginiamycin-type" compounds)” value ([2]; solvent: amylacetate) was over 4 g/L. For the same substance, the “Solubility (literature data, "virginiamycin-type" compounds)” value ([2]; solvent: benzene) was over 3 g/L, the “Solubility (literature data, "virginiamycin-type" compounds)” value ([2]; solvent: butanol) was over 10 g/L and the “Solubility (literature data, "virginiamycin-type" compounds)” value ([2]; solvent: carbon tetrachloride) was 0.02 g/L. The “Solubility (literature data, "virginiamycin-type" compounds)” value ([2]; solvent: chloroform) was 150 g/L, the “Solubility (literature data, "virginiamycin-type" compounds)” value ([2]; solvent: dimethylformamide) was 200 g/L and the “Virginiamycin that can be dissolved (literature data)” value ([2]; solvent: dimethylformamide) was 200 grams. The “Virginiamycin that can be dissolved (literature data)” value ([2]; solvent: dimethylsulfoxide) was 200 grams, the “Solubility (literature data, "virginiamycin-type" compounds)” value ([2]; solvent: dioxane) was 130 g/L and the “Solubility (literature data, "virginiamycin-type" compounds)” value ([2]; solvent: ethanol) was 70 g/L. For the same substance, the “Solubility (literature data, "virginiamycin-type" compounds)” value ([2]; solvent: ether, disproportionate solubilities for Type A and Type B) was 11 g/L, the “Solubility (literature data, "virginiamycin-type" compounds)” value ([2]; solvent: ethyl acetate, disproportionate solubilities for Type A and Type B) was about 205 g/L and the “Solubility (literature data, "virginiamycin-type" compounds)” value ([2]; solvent: hexane) was 0.2 g/L. The “Solubility (literature data, "virginiamycin-type" compounds)” value ([2]; solvent: isopropanol) was over 10 g/L, the “Solubility (literature data, "virginiamycin-type" compounds)” value ([2]; solvent: methanol) was 25 g/L and the “Solubility (literature data, "virginiamycin-type" compounds)” value ([2]; solvent: methylethylketone) was 35 g/L. For the same substance, the “Solubility (literature data, "virginiamycin-type" compounds)” value ([2]; solvent: toluene, disproportionate solubilities for Type A and Type B) was 82 g/L, the “Solubility (literature data, "virginiamycin-type" compounds)” value ([2]; solvent: water) was 0.0002 g/L and the Solubility in water ([2]; water, background statement) was 0.0001 grams/l. For the same substance, the “Concentration that can be dissolved” value ([3]; ethanol with water, at least 75% by weight ethanol (balance water)) was about 70 g/L, the “Virginiamycin solubility in grams per liter of solvent” value ([3]; solvent: 2-ethyl hexyl lactate) was 24 grams per liter and the “Virginiamycin solubility in grams per liter of solvent” value ([3]; solvent: 2-ethyl hexyl lactate, listed as Virginiamycin) was “˜24 grams per liter”. For the same substance, the “Virginiamycin solubility in grams per liter of solvent” value ([3]; solvent: 50% NMP/50% DMSO) was “˜335 grams per liter”, the “Gel formation of virginiamycin solution” value [3, 5] was “forms a hard gel at 280” and the “Virginiamycin solubility in grams per liter of solvent” value [3, 5] was under 200 grams per liter. For the same substance, the “Virginiamycin solubility in grams per liter of solvent” value ([3]; solvent: 70% ethanol/30% water) was “˜70 grams per liter”, the “Virginiamycin solubility in grams per liter of solvent” value ([3]; solvent: Dimethylsulfoxide (DMSO)) was “˜270 grams per liter” and the “Virginiamycin solubility in grams per liter of solvent” value ([3]; solvent: Ethyl lactate) was “about 92 grams per liter”. For the same substance, the “Virginiamycin solubility in grams per liter of solvent” value ([3]; solvent: Ethyl lactate, listed as Virginiamycin) was “˜92 grams per liter”, the “Virginiamycin solubility in grams per liter of solvent” value ([3]; solvent: Methyl soyate ester) was under 1 gram per liter and the “Virginiamycin solubility in grams per liter of solvent” value ([3]; solvent: N,N-dimethylcapramide) was “˜70 grams per liter”. For the same substance, the “Virginiamycin solubility in grams per liter of solvent” value ([3]; solvent: N-methylpyrrolidone (NMP)) was “˜260 grams per liter”, the “Amount of virginiamycin dissolved per liter” value ([3]; solvent: NMP, over a short period of time) was “about 290 grams per liter” and the “Virginiamycin solubility in grams per liter of solvent” value ([3]; solvent: tetrahydrofurfuryl alcohol) was under 160 grams per liter. The “Time until only a few crystals remained visible (dissolution)” value [4] was “on the order of an hour”.

Reference: patent US20080003215A1, “Use of pre-dissolved pristinamycin-type and polyether ionophore type antimicrobial agents in the production of ethanol” (priority 2006, published 2008)
